The numbers were not newly measured in PMC8657489, “Identification of VEGF Signaling Inhibition-Induced Glomerular Injury in Rats through Site-Specific Urinary Biomarkers” (International Journal of Molecular Sciences, 2021), which cites them from elsewhere.

Data set [1] relates to patients. Also on record: method as in PMID 24574832. The conditions noted are these: patients receiving Sunitinib.
The test system of data set [2] is glomerular endothelial cells and podocytes. Also on record: method as in PMID 17726104. The conditions noted are these: rats.
For data set [3], the system named is patients. The conditions noted are these: human, in vivo.

On to `CCN(CC)CCNC(=O)c1c(C)[nH]c(/C=C2\C(=O)Nc3ccc(F)cc32)c1C` [Sunitinib], for which the renal adverse effects result in data set [1] is “proteinuria and renal insufficiency were reported”.

With `COc1cc2c(Nc3ccc(Br)cc3F)ncnc2cc1OCC1CCN(C)CC1` [vandetanib], the glomerular morphological changes entry in data set [2] was “not only the loss of fenestration in glomerular endothelial cells, but also morphological changes in podocytes”. As to “Bevacizumab: monoclonal antibody against VEGF-A, also known as Avastin”, in data set [3], the “patients who developed proteinuria” value is 21~64% and the “proteinuria considered severe cases (grade 3–4)” value is on record as 2.1–11.9%.
